In ChEMBL document CHEMBL1201862, “PubChem BioAssay data set” (2004):
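Where inhibition never reached the appropriate level, the endpoint shown equals the highest concentration tested. Otherwise, values were interpolated linearly from a five-concentration, 48-hour dose response in 96-well plates. GI50 marks 50% less growth.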 Calls of active or inactive are those of the source. No stated cut-off is given here; in the data, active = GI50 up to about 1.1 µM and inactive = higher.

Key:
Assay in all cases: growth of human tumour cells (NCI), 48 h
786-0 = tested on: 786-0
A549 = tested on: A549
ACHN = tested on: ACHN
BT-549 = tested on: BT-549
CCRF-CEM = tested on: CCRF-CEM
EKVX = tested on: EKVX
HCC 2998 = tested on: HCC 2998
HCT-15 = tested on: HCT-15
HOP-62 = tested on: HOP-62
HT-29 = tested on: HT-29
Hs-578T = tested on: Hs-578T
IGROV-1 = tested on: IGROV-1
K562 = tested on: K562
KM12 = tested on: KM12
LOX IMVI = tested on: LOX IMVI
M14 = tested on: M14
MCF7 = tested on: MCF7
MDA-MB-435 = tested on: MDA-MB-435
MOLT-4 = tested on: MOLT-4
Malme-3M = tested on: Malme-3M
NCI-H226 = tested on: NCI-H226
NCI-H23 = tested on: NCI-H23
NCI-H460 = tested on: NCI-H460
NCI-H522 = tested on: NCI-H522
NCI/ADR-RES = tested on: NCI/ADR-RES
OVCAR-3 = tested on: OVCAR-3
OVCAR-4 = tested on: OVCAR-4
OVCAR-5 = tested on: OVCAR-5
OVCAR-8 = tested on: OVCAR-8
PC-3 = tested on: PC-3
RPMI-8226 = tested on: RPMI-8226
RXF 393 = tested on: RXF 393
SF-268 = tested on: SF-268
SF-295 = tested on: SF-295
SF-539 = tested on: SF-539
SK-MEL-28 = tested on: SK-MEL-28
SK-MEL-2 = tested on: SK-MEL-2
SK-MEL-5 = tested on: SK-MEL-5
SK-OV-3 = tested on: SK-OV-3
SN12C = tested on: SN12C
SNB-19 = tested on: SNB-19
SNB-75 = tested on: SNB-75
SR = tested on: SR
SW-620 = tested on: SW-620
TK-10 = tested on: TK-10
U-251 = tested on: U-251
UACC-257 = tested on: UACC-257
UACC-62 = tested on: UACC-62
UO-31 = tested on: UO-31
A498 = tested on: A498
CAKI-1 = tested on: CAKI-1
COLO 205 = tested on: COLO 205
HCT-116 = tested on: HCT-116
HL-60 = tested on: HL-60
HOP-92 = tested on: HOP-92
MDA-MB-231 = tested on: MDA-MB-231

Question: What does the source list for Nc1nc(O)c2nc(CNc3ccc(C(=O)NC(CCC(=O)O)C(=O)O)cc3)cnc2n1 (stereo not given)?
Answer: GI50 (786-0): > 100 µM (inactive); GI50 (A549): > 100 µM (inactive); GI50 (ACHN): > 100 µM (inactive); GI50 (BT-549): > 100 µM (inactive); GI50 (CCRF-CEM): > 100 µM (inactive); GI50 (EKVX): > 100 µM (inactive); GI50 (HCC 2998): > 100 µM (inactive); GI50 (HCT-15): > 100 µM; GI50 (HOP-62): > 100 µM (inactive); GI50 (HT-29): > 100 µM (inactive); GI50 (Hs-578T): > 100 µM (inactive); GI50 (IGROV-1): > 100 µM (inactive); GI50 (K562): > 100 µM (inactive); GI50 (KM12): > 100 µM (inactive); GI50 (LOX IMVI): > 100 µM (inactive); GI50 (M14): > 100 µM (inactive); GI50 (MCF7): > 100 µM (inactive); GI50 (MDA-MB-435): > 100 µM (inactive); GI50 (MOLT-4): > 100 µM (inactive); GI50 (Malme-3M): > 100 µM (inactive); GI50 (NCI-H226): > 100 µM (inactive); GI50 (NCI-H23): > 100 µM (inactive); GI50 (NCI-H460): > 100 µM (inactive); GI50 (NCI-H522): > 100 µM (inactive); GI50 (NCI/ADR-RES): > 100 µM (inactive); GI50 (OVCAR-3): > 100 µM (inactive); GI50 (OVCAR-4): > 100 µM (inactive); GI50 (OVCAR-5): > 100 µM (inactive); GI50 (OVCAR-8): > 100 µM (inactive); GI50 (PC-3): > 100 µM (inactive); GI50 (RPMI-8226): > 100 µM (inactive); GI50 (RXF 393): > 100 µM (inactive); GI50 (SF-268): > 100 µM (inactive); GI50 (SF-295): > 100 µM (inactive); GI50 (SF-539): > 100 µM (inactive); GI50 (SK-MEL-28): > 100 µM (inactive); GI50 (SK-MEL-2): > 100 µM (inactive); GI50 (SK-MEL-5): > 100 µM (inactive); GI50 (SK-OV-3): > 10 µM (inactive); GI50 (SN12C): > 100 µM (inactive); GI50 (SNB-19): > 100 µM (inactive); GI50 (SNB-75): 0.9 µM (active); GI50 (SR): > 100 µM (inactive); GI50 (SW-620): > 100 µM (inactive); GI50 (TK-10): > 100 µM (inactive); GI50 (U-251): > 100 µM (inactive); GI50 (UACC-257): > 100 µM (inactive); GI50 (UACC-62): > 100 µM (inactive); GI50 (UO-31): > 100 µM (inactive)

Question: With Cc1c(/C=N/NC(=S)Nc2ccc([N+](=O)[O-])cc2)c(=O)n(-c2ccccc2)n1C as the compound, how does the GI50 (786-0) read?
Answer: 14.3 µM (inactive)

Question: What about the GI50 (A498) of the same compound?
Answer: 10.9 µM (inactive)

Question: What about the GI50 (ACHN) of the same compound?
Answer: 11.5 µM (inactive)

Question: And the GI50 (BT-549)?
Answer: 15.7 µM (inactive)

Question: What about the GI50 (CAKI-1) of the same compound?
Answer: 6.85 µM (inactive)

Question: And the GI50 (CCRF-CEM)?
Answer: 7.29 µM (inactive)

Question: And the GI50 (COLO 205)?
Answer: 50.4 µM (inactive)

Question: And the GI50 (EKVX)?
Answer: 10.1 µM (inactive)

Question: And the GI50 (HCC 2998)?
Answer: 42.3 µM (inactive)

Question: And the GI50 (HCT-116)?
Answer: 18.6 µM (inactive)

Question: What about the GI50 (HCT-15) of the same compound?
Answer: 3.08 µM

Question: What about the GI50 (HL-60) of the same compound?
Answer: 35.2 µM (inactive)

Question: What about the GI50 (HOP-62) of the same compound?
Answer: 11.6 µM (inactive)

Question: What about the GI50 (HOP-92) of the same compound?
Answer: 11.8 µM (inactive)

Question: What about the GI50 (HT-29) of the same compound?
Answer: 12.9 µM (inactive)

Question: And the GI50 (Hs-578T)?
Answer: 15.8 µM (inactive)

Question: What about the GI50 (IGROV-1) of the same compound?
Answer: 12.5 µM (inactive)

Question: And the GI50 (K562)?
Answer: 47.1 µM (inactive)

Question: What about the GI50 (KM12) of the same compound?
Answer: 13.1 µM (inactive)

Question: What about the GI50 (LOX IMVI) of the same compound?
Answer: 15.2 µM (inactive)

Question: What about the GI50 (M14) of the same compound?
Answer: 11.2 µM (inactive)

Question: What about the GI50 (MCF7) of the same compound?
Answer: 20 µM (inactive)

Question: What about the GI50 (MDA-MB-231) of the same compound?
Answer: 20.7 µM (inactive)

Question: What about the GI50 (MDA-MB-435) of the same compound?
Answer: > 100 µM (inactive)

Question: What about the GI50 (MOLT-4) of the same compound?
Answer: 9.48 µM (inactive)

Question: And the GI50 (NCI-H226)?
Answer: 10.8 µM (inactive)

Question: And the GI50 (NCI-H23)?
Answer: 17.9 µM (inactive)

Question: What about the GI50 (NCI/ADR-RES) of the same compound?
Answer: 9.66 µM (inactive)

Question: What about the GI50 (OVCAR-4) of the same compound?
Answer: 14.6 µM (inactive)

Question: And the GI50 (OVCAR-8)?
Answer: 13.6 µM (inactive)

Question: What about the GI50 (PC-3) of the same compound?
Answer: 19.1 µM (inactive)

Question: And the GI50 (RPMI-8226)?
Answer: 48.5 µM (inactive)

Question: And the GI50 (RXF 393)?
Answer: 12.4 µM (inactive)

Question: What about the GI50 (SF-268) of the same compound?
Answer: 13.5 µM (inactive)

Question: And the GI50 (SF-295)?
Answer: 8.53 µM (inactive)

Question: What about the GI50 (SF-539) of the same compound?
Answer: 16.4 µM (inactive)

Question: And the GI50 (SK-MEL-28)?
Answer: > 100 µM (inactive)

Question: What about the GI50 (SK-MEL-2) of the same compound?
Answer: 15.5 µM (inactive)

Question: What about the GI50 (SK-MEL-5) of the same compound?
Answer: 33.8 µM (inactive)

Question: What about the GI50 (SK-OV-3) of the same compound?
Answer: 13.5 µM (inactive)

Question: What about the GI50 (SNB-19) of the same compound?
Answer: 16 µM (inactive)

Question: What about the GI50 (SNB-75) of the same compound?
Answer: 13.3 µM (inactive)

Question: And the GI50 (SR)?
Answer: 17.4 µM (inactive)

Question: And the GI50 (SW-620)?
Answer: 25.6 µM (inactive)

Question: What about the GI50 (TK-10) of the same compound?
Answer: 11.8 µM (inactive)

Question: And the GI50 (U-251)?
Answer: 15.6 µM (inactive)

Question: And the GI50 (UACC-257)?
Answer: 30.9 µM (inactive)

Question: And the GI50 (UACC-62)?
Answer: 17.6 µM (inactive)

Question: And the GI50 (UO-31)?
Answer: 11.4 µM (inactive)

Question: Which results are given for Cc1nc(=O)n2c(c1C(=O)Nc1ccc(Cl)cc1)NCC2?
Answer: GI50 (A498): > 72.8 µM (inactive); GI50 (HOP-92): > 79.4 µM (inactive)
